Our source for the relative viability values is the supplement of paper PMC10307832.

Structures are written as SMILES.

The test system of the first assay is NCI-H661. Put plainly: relative viability (nuclei count vs DMSO), 5 days (fraction); higher = more cells survive. As to conditions: first compound 2 µM. The method, boiled down:
(§1)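 Dosing by pin tool came one day after lung cancer cell lines were seeded in 1536-well plates, using either one drug or a fixed anchor-drug dose plus five library-drug doses (not always all listed) in √10 steps. After 5 days, nuclei were counted on 4× images. Relative viability is treated-well nuclei count divided by vehicle-well nuclei count, and values are medians of duplicate plates.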
Regarding `COCC1(CO)C(=O)C2CCN1CC2` (stereo not drawn) [PRIMA-1MET] + O=C(c1cc(Cc2n[nH]c(=O)c3ccccc23)ccc1F)N1CCN(C(=O)C2CC2)CC1 [Olaparib] (partner 8 µM), the relative viability was 0.76.

Still in this assay, the particulars now being: first compound 6.325 µM.
On to `COCC1(CO)C(=O)C2CCN1CC2` (stereo not drawn) [PRIMA-1MET] + N=C(N)NC(=N)NCCc1ccccc1 [Phenformin] (partner 250 µM), for which the relative viability was determined as 0.288.

Compound `COCC1(CO)C(=O)C2CCN1CC2` (stereo not drawn) [PRIMA-1MET] + Nc1nc2[nH]cc(CCc3ccc(C(=O)N[C@@H](CCC(=O)O)C(=O)O)cc3)c2c(=O)[nH]1 [Pemetrexed] (partner 0.2 µM) yielded a relative viability of 0.963.

`COCC1(CO)C(=O)C2CCN1CC2` (stereo not drawn) [PRIMA-1MET] + CC(=O)Nc1cccc(-n2c(=O)n(C3CC3)c(=O)c3c(Nc4ccc(I)cc4F)n(C)c(=O)c(C)c32)c1 [Trametinib] (partner 0.02 µM) showed a relative viability of 0.552.

For `COCC1(CO)C(=O)C2CCN1CC2` (stereo not drawn) [PRIMA-1MET] + Nc1ncn([C@H]2C[C@H](O)[C@@H](CO)O2)c(=O)n1 [Decitabine] (partner 2 µM), the relative viability was determined as 0.567.

For the compound `COCC1(CO)C(=O)C2CCN1CC2` (stereo not drawn) [PRIMA-1MET] + O=C(c1cc(Cc2n[nH]c(=O)c3ccccc23)ccc1F)N1CCN(C(=O)C2CC2)CC1 [Olaparib] (partner 8 µM), the relative viability was 0.753.

Staying with this assay, now noted: first compound 20 µM.
Turning to `COCC1(CO)C(=O)C2CCN1CC2` (stereo not drawn) [PRIMA-1MET] + N=C(N)NC(=N)NCCc1ccccc1 [Phenformin] (partner 250 µM), the relative viability came to 0.292.

In turn, `COCC1(CO)C(=O)C2CCN1CC2` (stereo not drawn) [PRIMA-1MET] + Nc1nc2[nH]cc(CCc3ccc(C(=O)N[C@@H](CCC(=O)O)C(=O)O)cc3)c2c(=O)[nH]1 [Pemetrexed] (partner 0.2 µM) had a relative viability of 0.928.

Turning to `COCC1(CO)C(=O)C2CCN1CC2` (stereo not drawn) [PRIMA-1MET] + CC(=O)Nc1cccc(-n2c(=O)n(C3CC3)c(=O)c3c(Nc4ccc(I)cc4F)n(C)c(=O)c(C)c32)c1 [Trametinib] (partner 0.02 µM), the relative viability is 0.503.

Consider `COCC1(CO)C(=O)C2CCN1CC2` (stereo not drawn) [PRIMA-1MET] + Nc1ncn([C@H]2C[C@H](O)[C@@H](CO)O2)c(=O)n1 [Decitabine] (partner 2 µM), for which the relative viability was found to be 0.497.

`COCC1(CO)C(=O)C2CCN1CC2` (stereo not drawn) [PRIMA-1MET] + O=C(c1cc(Cc2n[nH]c(=O)c3ccccc23)ccc1F)N1CCN(C(=O)C2CC2)CC1 [Olaparib] (partner 8 µM) displayed a relative viability of 0.751.

For another assay, the system named is NCI-H1734. The assay is described as above. As to conditions: first compound 0.2 µM. The method in brief: as §1
In the case of `COCC1(CO)C(=O)C2CCN1CC2` (stereo not drawn) [PRIMA-1MET] + N=C(N)NC(=N)NCCc1ccccc1 [Phenformin] (partner 250 µM), the relative viability worked out at 0.385.

As to `COCC1(CO)C(=O)C2CCN1CC2` (stereo not drawn) [PRIMA-1MET] + Nc1nc2[nH]cc(CCc3ccc(C(=O)N[C@@H](CCC(=O)O)C(=O)O)cc3)c2c(=O)[nH]1 [Pemetrexed] (partner 0.2 µM), the relative viability was found to be 0.403.

As for `COCC1(CO)C(=O)C2CCN1CC2` (stereo not drawn) [PRIMA-1MET] + CC(=O)Nc1cccc(-n2c(=O)n(C3CC3)c(=O)c3c(Nc4ccc(I)cc4F)n(C)c(=O)c(C)c32)c1 [Trametinib] (partner 0.02 µM), the relative viability came to 0.564.

As for `COCC1(CO)C(=O)C2CCN1CC2` (stereo not drawn) [PRIMA-1MET] + Nc1ncn([C@H]2C[C@H](O)[C@@H](CO)O2)c(=O)n1 [Decitabine] (partner 2 µM), the relative viability is 0.481.

For `COCC1(CO)C(=O)C2CCN1CC2` (stereo not drawn) [PRIMA-1MET] + O=C(c1cc(Cc2n[nH]c(=O)c3ccccc23)ccc1F)N1CCN(C(=O)C2CC2)CC1 [Olaparib] (partner 8 µM), the relative viability is 0.711.

Staying with this assay, now noted: first compound 0.6325 µM.
Turning to `COCC1(CO)C(=O)C2CCN1CC2` (stereo not drawn) [PRIMA-1MET] + N=C(N)NC(=N)NCCc1ccccc1 [Phenformin] (partner 250 µM), the relative viability stood at 0.328.

Regarding `COCC1(CO)C(=O)C2CCN1CC2` (stereo not drawn) [PRIMA-1MET] + Nc1nc2[nH]cc(CCc3ccc(C(=O)N[C@@H](CCC(=O)O)C(=O)O)cc3)c2c(=O)[nH]1 [Pemetrexed] (partner 0.2 µM), the relative viability came to 0.416.

For the compound `COCC1(CO)C(=O)C2CCN1CC2` (stereo not drawn) [PRIMA-1MET] + CC(=O)Nc1cccc(-n2c(=O)n(C3CC3)c(=O)c3c(Nc4ccc(I)cc4F)n(C)c(=O)c(C)c32)c1 [Trametinib] (partner 0.02 µM), the relative viability came to 0.622.

Consider `COCC1(CO)C(=O)C2CCN1CC2` (stereo not drawn) [PRIMA-1MET] + Nc1ncn([C@H]2C[C@H](O)[C@@H](CO)O2)c(=O)n1 [Decitabine] (partner 2 µM), for which the relative viability came out at 0.289.

The compound `COCC1(CO)C(=O)C2CCN1CC2` (stereo not drawn) [PRIMA-1MET] + O=C(c1cc(Cc2n[nH]c(=O)c3ccccc23)ccc1F)N1CCN(C(=O)C2CC2)CC1 [Olaparib] (partner 8 µM) showed a relative viability of 0.627.

Staying with this assay, now noted: first compound 2 µM.
As for `COCC1(CO)C(=O)C2CCN1CC2` (stereo not drawn) [PRIMA-1MET] + N=C(N)NC(=N)NCCc1ccccc1 [Phenformin] (partner 250 µM), the relative viability turned out to be 0.324.

Compound `COCC1(CO)C(=O)C2CCN1CC2` (stereo not drawn) [PRIMA-1MET] + Nc1nc2[nH]cc(CCc3ccc(C(=O)N[C@@H](CCC(=O)O)C(=O)O)cc3)c2c(=O)[nH]1 [Pemetrexed] (partner 0.2 µM) had a relative viability of 0.433.

In turn, `COCC1(CO)C(=O)C2CCN1CC2` (stereo not drawn) [PRIMA-1MET] + CC(=O)Nc1cccc(-n2c(=O)n(C3CC3)c(=O)c3c(Nc4ccc(I)cc4F)n(C)c(=O)c(C)c32)c1 [Trametinib] (partner 0.02 µM) yielded a relative viability of 0.584.

As for `COCC1(CO)C(=O)C2CCN1CC2` (stereo not drawn) [PRIMA-1MET] + Nc1ncn([C@H]2C[C@H](O)[C@@H](CO)O2)c(=O)n1 [Decitabine] (partner 2 µM), the relative viability is 0.456.

In turn, `COCC1(CO)C(=O)C2CCN1CC2` (stereo not drawn) [PRIMA-1MET] + O=C(c1cc(Cc2n[nH]c(=O)c3ccccc23)ccc1F)N1CCN(C(=O)C2CC2)CC1 [Olaparib] (partner 8 µM) registered a relative viability of 0.581.

Staying with this assay, now noted: first compound 6.325 µM.
`COCC1(CO)C(=O)C2CCN1CC2` (stereo not drawn) [PRIMA-1MET] + N=C(N)NC(=N)NCCc1ccccc1 [Phenformin] (partner 250 µM): the relative viability came to 0.361.

The compound `COCC1(CO)C(=O)C2CCN1CC2` (stereo not drawn) [PRIMA-1MET] + Nc1nc2[nH]cc(CCc3ccc(C(=O)N[C@@H](CCC(=O)O)C(=O)O)cc3)c2c(=O)[nH]1 [Pemetrexed] (partner 0.2 µM) registered a relative viability of 0.407.

Turning to `COCC1(CO)C(=O)C2CCN1CC2` (stereo not drawn) [PRIMA-1MET] + CC(=O)Nc1cccc(-n2c(=O)n(C3CC3)c(=O)c3c(Nc4ccc(I)cc4F)n(C)c(=O)c(C)c32)c1 [Trametinib] (partner 0.02 µM), the relative viability is 0.581.

Consider `COCC1(CO)C(=O)C2CCN1CC2` (stereo not drawn) [PRIMA-1MET] + Nc1ncn([C@H]2C[C@H](O)[C@@H](CO)O2)c(=O)n1 [Decitabine] (partner 2 µM), for which the relative viability stood at 0.474.

Consider `COCC1(CO)C(=O)C2CCN1CC2` (stereo not drawn) [PRIMA-1MET] + O=C(c1cc(Cc2n[nH]c(=O)c3ccccc23)ccc1F)N1CCN(C(=O)C2CC2)CC1 [Olaparib] (partner 8 µM), for which the relative viability amounted to 0.631.

Staying with this assay, now noted: first compound 20 µM.
Compound `COCC1(CO)C(=O)C2CCN1CC2` (stereo not drawn) [PRIMA-1MET] + N=C(N)NC(=N)NCCc1ccccc1 [Phenformin] (partner 250 µM) came in with a relative viability of 0.058.

`COCC1(CO)C(=O)C2CCN1CC2` (stereo not drawn) [PRIMA-1MET] + Nc1nc2[nH]cc(CCc3ccc(C(=O)N[C@@H](CCC(=O)O)C(=O)O)cc3)c2c(=O)[nH]1 [Pemetrexed] (partner 0.2 µM) yielded a relative viability of 0.0543.
